Read-outs that look alike come from different tables or passages of the source.
Legend:
AD38 cells = assay: AD38 viability normalized to DMSO control; format: cell-based; details: 10 μM compound, vs DMSO control
Procedure: (§1) AD38 cells were then re-suspended with 10 mL of treatment medium and counted. Wells of a collagen coated 96-well NUNC microtiter plate were seeded at 50,000/well in 180 μL of treatment medium, and 20 μL of either 10% DMSO (Control) or a 10× solution of test compound in 10% DMSO in treatment media was added for a final compound concentration 1, 3, or 10 μM (1.0% final [DMSO]) and plates were incubated for 6 days at 37° C.

[1] = tested on: HBV viral load, AD38 cells; assay: Activity of test compounds on viral production from AD38 cells (viral load by quantitative PCR of the core sequence in supernatant); format: cell-based, Hepatitis B virus; details: Hepatitis B virus, 144 h, 10 μM compound, 6 days at 37° C., vs DMSO control wells, read-out: AD38 Viral Load (CpAM/DMSO %) at 10 μM
Procedure: as §1
Subsequently viral load production was assayed by quantitative PCR of the core sequence. Briefly, 5 μL of clarified supernatant was added to a PCR reaction mixture that contained forward primers HBV-f 5′-CTGTGCCTTGGGTGGCTTT-3′, Reverse primers HBV-r 5′-[…]-3′ and Fluorescent TaqMan™ Probes HBV-probe 5′-FAM/AGCTCCAAA/ZEN/[…]/3IABkFQ-3′ in Quanta Biosciences PerfeCTa® qPCR Toughmix®, and was subsequently on an Applied Biosystems VIIA7 in a final volume of 20 μL. The PCR mixture was incubated at 45° C. for 5 minutes, then 95° C. for 10 min, followed by 40 cycles of 10 seconds at 95° C. and 20 seconds at 60° C. Viral load was quantitated against known standards by using ViiA™ 7 Software. Viral load in the supernatant from wells with treated cells were compared against viral load in supernatant from DMSO control wells (≥3 per plate).

Structure (SMILES)	AD38 Viability Normalized Result (CPAM/DMSO %) at 10 μM (AD38 cells; Table 9) [%]	activity at 10 µM ([1]; Table 9) [%]	AD38 Viability Normalized Result (CPAM/DMSO %) at 10 μM (AD38 cells; Table 6) [%]	activity at 10 µM ([1]; Table 6) [%]
CCOc1ccc(S(=O)(=O)N2CCN(c3nc(Nc4ccc(F)cc4)cc(C(F)(F)F)n3)CC2)cc1 [Compound 1341]	95	1	–	–
CCCCOc1ccc(S(=O)(=O)N2CCN(c3nc(Nc4ccc(F)cc4)cc(C(F)(F)F)n3)CC2)cc1 [Compound 1342]	107	17	–	–
O=S(=O)(c1ccc(F)cc1)N1CCN(c2nc(Nc3ccc(F)cc3)cc(-c3nccs3)n2)CC1 [Compound 1362]	88	54	–	–
O=S(=O)(c1ccc(F)cc1)N1CCN(c2nc(Nc3ccc(F)cc3)cc(-n3cnnc3)n2)CC1 [Compound 1312]	–	–	96	31
N#Cc1ccc(Nc2cc(C(F)(F)F)nc(N3CCN(S(=O)(=O)c4ccc(OC(F)(F)F)cc4)CC3)n2)cc1 [Compound 1332]	85	13	–	–
COc1ccc(S(=O)(=O)N2CCN(c3nc(Nc4ccc(C)cc4)cc(NC(C)(C)C)n3)CC2)cc1 [Compound 1249]	–	–	65	31
COc1ccc(S(=O)(=O)N2CCN(c3nc(Nc4ccc(C)cc4)cc(N4CCCCC4=O)n3)CC2)cc1 [Compound 1213]	–	–	94	40
Cc1cc(Nc2ccc(F)cc2)nc(N2CCN(S(=O)(=O)c3ccc(C(=O)O)cc3)CC2)n1 [Compound 1381, 4-((4-(4-((4-fluorophenyl)amino)-6-methylpyrimidin-2-yl)piperazin-1-yl)sulfonyl) benzoic acid]	107	46	–	–
Cc1ccc(S(=O)(=O)N2CCN(c3nc(Nc4ccc(F)cc4)cc(-c4nccs4)n3)CC2)cc1 [Compound 1361]	95	25	–	–
CC(C)c1cc(Oc2ccc(F)cc2)nc(N2CCN(S(=O)(=O)c3ccc(C(F)(F)F)cc3)CC2)n1 [Compound 1296]	–	–	103	102
COc1ccc(S(=O)(=O)N2CCN(c3nc(C)cc(Nc4ccc(C#N)cc4)n3)CC2(C)C)cc1 [Compound 1376]	121	20	–	–
COc1ccc(S(=O)(=O)N2CCN(c3nc(C)cc(Nc4ccc(F)cc4)n3)CC2C)cc1 (stereo not drawn) [Compound 1348]	102	5	–	–
Cc1ccc(Nc2cc(C)nc(N3CCN(S(=O)(=O)c4ccncc4)CC3)n2)cc1 [Compound 1258]	–	–	105	50
CC(C)(Oc1ccc(S(=O)(=O)N2CCN(c3nc(Nc4ccc(F)cc4)cc(C(F)(F)F)n3)CC2)cc1)C(=O)O [Compound 1405, 2-(4-((4-(4-((4-fluorophenyl)amino)-6-(trifluoromethyl)pyrimidin-2-yl)piperazin-1-yl)sulfonyl)phenoxy)-2-methylpropanoic acid]	84	28	–	–
COc1ccc(S(=O)(=O)N2CCN(c3nc(Nc4ccc(C)cc4)cc(N4CCNCC4)n3)CC2)cc1 [Compound 1202, 2-(4-((4-methoxyphenyl)sulfonyl)piperazin-1-yl)-6-(piperazin-1-yl)-N-(p-tolyl) pyrimidin-4-amine]	–	–	106	51
COc1cccc(S(=O)(=O)N2CCN(c3cc(C)cc(Nc4ccc(C)cc4)n3)CC2)c1 [Compound 1173]	–	–	105	9
Cc1cc(Nc2ccc(F)cc2)nc(N2CCN(S(=O)(=O)c3ccc(OCCN4CCOCC4)cc3)CC2)n1 [Compound 1383, N-(4-fluorophenyl)-6-methyl-2-(4-((4-(2-morpholinoethoxy)phenyl)sulfonyl)piperazin-1-yl) pyrimidin-4-amine]	94	14	–	–

Structure (SMILES)	AD38 Viability Normalized Result (CPAM/DMSO %) at 10 μM (AD38 cells; Table 9) [%]	activity at 10 µM ([1]; Table 9) [%]	AD38 Viability Normalized Result (CPAM/DMSO %) at 10 μM (AD38 cells; Table 6) [%]	activity at 10 µM ([1]; Table 6) [%]
CN(C)c1cc(Nc2ccc(F)cc2)nc(N2CCN(S(=O)(=O)c3ccc(C(F)(F)F)cc3)CC2)n1 [Compound 1303]	–	–	35	14
CN(C)CCOc1ccc(S(=O)(=O)N2CCN(c3nc(Nc4ccc(F)cc4)cc(C(F)(F)F)n3)CC2)cc1 [Compound 1389, 2-(4-((4-(2-(dimethylamino)ethoxy)phenyl)sulfonyl)piperazin-1-yl)-N-(4-fluorophenyl)-6-(trifluoromethyl) pyrimidin-4-amine]	0	2	–	–
CCOC(=O)C(C)(C)Oc1ccc(S(=O)(=O)N2CCN(c3nc(C)cc(Nc4ccc(F)cc4)n3)CC2)cc1 [Compound 1404, ethyl 2-(4-((4-(4-((4-fluorophenyl)amino)-6-methylpyrimidin-2-yl)piperazin-1-yl)sulfonyl)phenoxy)-2-methylpropanoate]	96	90	–	–
COc1ccc(S(=O)(=O)N2CCN(c3nc(Nc4ccc(C)cc4)cc(N(C)C)n3)CC2)cc1 [Compound 1143]	–	–	107	8
Cc1ccc(Nc2cc(C)nc(N3CCN(S(=O)(=O)c4ccc5[nH]c(=O)[nH]c5c4)CC3)n2)cc1 [Compound 1167]	–	–	108	36
Cc1cc(Nc2ccc(F)cc2)nc(N2CCN(S(=O)(=O)c3ccc(CC(=O)O)cc3)CC2)n1 [Compound 1392, 2-(4-((4-(4-((4-fluorophenyl)amino)-6-methylpyrimidin-2-yl)piperazin-1-yl)sulfonyl)phenyl) acetic acid]	99	69	–	–
Cc1ccc(S(=O)(=O)N2CCN(c3nc(Nc4ccc(C#N)cc4)cc(C(F)(F)F)n3)CC2)cc1 [Compound 1324]	–	–	–	1
N#Cc1ccc(Nc2cc(C(F)(F)F)nc(N3CCN(S(=O)(=O)c4ccc(F)cc4)CC3)n2)cc1 [Compound 1326]	–	–	–	2
N#Cc1ccc(Nc2cc(C(F)(F)F)nc(N3CCN(S(=O)(=O)c4ccc(C(F)(F)F)cc4)CC3)n2)cc1 [Compound 1320]	–	–	–	18
Cc1ccc(S(=O)(=O)N2CCN(c3nc(Nc4ccc(F)cc4)cc(-n4cnnc4)n3)CC2)cc1 [Compound 1316]	–	–	–	25
Cc1cc(Nc2ccc(C#N)cc2)nc(N2CCN(S(=O)(=O)c3ccccc3)CC2)n1 [Compound 1327]	–	–	–	1
Cc1ccc(S(=O)(=O)N2CCN(c3nc(C)cc(Nc4ccc(C#N)cc4)n3)CC2)cc1 [Compound 1321]	–	–	–	1
COc1ccc(S(=O)(=O)N2CCN(c3nc(Nc4ccc(C#N)cc4)cc(C(F)(F)F)n3)CC2)cc1 [Compound 1329]	–	–	–	1
Cc1cc(Nc2ccc(C#N)cc2)nc(N2CCN(S(=O)(=O)c3ccc(O)cc3)CC2)n1 [Compound 1328]	–	–	–	9
Cc1cc(Nc2ccc(C#N)cc2)nc(N2CCN(S(=O)(=O)c3ccc(C(F)(F)F)cc3)CC2)n1 [Compound 1322]	–	–	–	35
Cc1cc(Nc2ccc(C#N)cc2)nc(N2CCN(S(=O)(=O)c3ccc(F)cc3)CC2)n1 [Compound 1319]	–	–	–	5
N#Cc1ccc(Nc2cc(C(F)(F)F)nc(N3CCN(S(=O)(=O)c4ccccc4)CC3)n2)cc1 [Compound 1325]	–	–	–	1
